Assay results from patent publication US20030057401A1, “Inhibitor compositions” (priority 1999, published 2003).

Tested on: sessile SRB colonies
Test: Experiment 4: biocidal efficacy for planktonic and sessile bacteria, studs from Robins device, 3 hr contact
Type: cell-based, Sulphate Reducing Bacteria (SRB)
Details: if it can penetrate the glycocalyx
Experimental: The purpose of killing planktonic SRB is to prevent the formation of sessile SRB colonies. A series of tests has been conducted in which viable sessile cultures have been treated with a range of biocides. Synthetic Seawater [table] Additional nutrients were added to water to encourage bacteria growth. Experiment 4 is a comparison of biocidal efficacy for planktonic and sessile bacteria. Viable SRB colonies are established on studs in a Robins device. The studs are removed, washed in sterile sea water and treated with solutions containing the test biocide. After exposures of 1, 3, 4, 8 or extended periods, coupons are rinsed, scraped and suspended in fresh synthetic sea water. Serial dilutions and ATP analyses are conducted on the samples to determine bacterial activity.

## O=CCCCC=O [glutaraldehyde]
  comparative biocidal efficacy on sessile SRB colonies: more effective biocide than quaternary amines
